Columns and labels:
[1] = Organ uptake by gamma camera scintigraphy (organ:muscle ratio and percent injected dose); type: in vivo, dogs
Description: All dogs were imaged with a Gamma camera (Technicare Omega 500, Solon, Ohio, or IS2, Ottawa, Ontario). Images were obtained of the whole body in overlapping segments, in right lateral, left lateral, and sternal recumbency. Images were obtained to 200,000 counts, with a 256×256 bit matrix and 16-bit depth. A camera standard of 200 uCi in 10 mL of water was included in each image to ensure stable measurements over the scan period. Camera sensitivity was determined by placing the camera standard 30 cm from the detector and scanning for 1 minute. This calibration factor was used to convert individual organ emission counts to mCi.
Chemotherapy consisted of prednisone, vincristine, cyclophosphamide, and L-asparaginase. Two dogs had whole body computed tomography (CT) performed.
ROIs were drawn on the 2 hour images and duplicated for the opposite lateral projection and subsequent time points, and adjusted for altered patient position. […]
Organs that were clearly delineated on conjugate projections (liver, GI, bone marrow, lung) were measured using the geometric mean method, and smaller or peripherally located organs (kidney, mandibular lymph nodes, salivary gland) were measured using the effective point source method. Depth for depth correction was measured on orthogonal images. Lung activity was measured using an ROI in a posterior region and normalized to the total pixels of the lung. […] […] Camera sensitivity was measured using the camera standard. Percent injected dose and organ:muscle ratio were calculated for each imaging study at each time point. Imaging results are presented in graphical format as percent injected dose for each organ evaluated, as well as organ:muscle ratios.

[2] = Whole body activity by handheld monitor at 1 m from the dog; type: in vivo, dogs
Excerpt: All dogs were held overnight in a protected area with institutionally approved radiation safety protocols. Dogs were released from the facility after whole body radiation levels were less than 0.5 mR/hr at the skin surface and less than 0.05 mR/hr at 1 m.

[3] = Safety monitoring in dogs (vital signs, blood pressure, complete blood counts, serum biochemistry); type: in vivo; details: normal dogs and those with NHL
Description: All 3 dogs were mixed breed dogs and after physical examination were clinically normal. […] Images of the whole body in orthogonal planes were acquired at 2 hours, 4 hours, and 6 hours after injection. Complete blood counts and serum biochemistry were performed before and after imaging.

canine lymphoma = system: canine lymphoma; set-up: method as in PMID 16767086, PMID 19289419, PMID 22177114; details: in vitro, canine cell lines and tissue samples; less than in human cell lines and xenografts; cited from earlier work
normal lymphocytes = system: normal lymphocytes; set-up: method as in PMID 16767086, PMID 22177114; details: increases with activation; cited from earlier work
activated α4β1 integrin = system: activated α4β1 integrin; set-up: method as in PMID 9479864; details: cited from earlier work
[4] = set-up: method as in PMID 16767086; details: human plasma; cited from earlier work

Q: With `Cc1ccccc1NC(=O)Nc1ccc(CC(=O)N[C@@H](CCCCNC(=O)/C=C/c2cccnc2)C(=O)N[C@@H](CCCC(=O)O)C(=O)NC2(C(=O)NCCOCCOCCNC(=O)CCC(=O)NCCOCCOCCNC(=O)CCC(=O)N[C@@H](CCCCNC(=O)c3ccc(NN)nc3)C(N)=O)CCCCC2)cc1` [^99mTc-LLP2A-HYNIC, metal not drawn] as the compound, how does the route of elimination ([1]; dogs) read?
A: mainly eliminated through the kidneys

Q: And the “organ:muscle ratio” value ([1]; kidney affected with lymphoma (dog L1), highest ratio of tumor tissues)?
A: 7.00

Q: And the “organ:muscle ratio” value ([1]; unaffected kidney in the same dog (L1))?
A: 5.27

Q: What about the “mean whole body activity” value ([2]; 5 minutes post-injection) of the same compound?
A: 0.5 mR/h

Q: What about the “whole body activity, range” value ([2]; 5 minutes post-injection) of the same compound?
A: 0.2–0.8 mR/h

Q: What about the “mean whole body activity” value ([2]; 360 min) of the same compound?
A: 0.13 mR/h

Q: What about the whole body activity ([2]; 24 hours) of the same compound?
A: 0.04 mR/h

Q: What about the overall safety [3] of the same compound?
A: safe

Q: With “N-[[4-[[[(2-ethylphenyl)amino]carbonyl]amino]phenyl]acetyl]-N ^ε-6-[(2E)-1-oxo-3-(3-pyridinyl-2-propenyl)]-L-lysyl-L-2-aminohexanedioyl-(1-amino-1-cyclohexane)carboxamide [LLP2A]” as the compound, how does the “affinity to canine lymphoma” value (canine lymphoma) read?
A: good affinity

Q: And the “affinity to normal lymphocytes” value (normal lymphocytes)?
A: mild affinity

Q: What about the “affinity to activated α4β1 on lymphoma cells” value (activated α4β1 integrin) of the same compound?
A: high affinity

Q: What about the resistance to proteases [4] of the same compound?
A: resistant to proteases in human plasma
